The test deals with CHO-S cells. In words: Viable cell count of CHO-S cells after 24 hours incubation (anticancer activity). The test is classed as cell-based, hamster. How it is done:
The two compounds, by means of a standard assay, were tested on mammalian (hamster) cancer cells to evaluate possible anticancer activity.
Compound (IIB) was used at concentrations of 25 μM and 50 μM, while Peny compound was tested at concentrations up to 400 μM.
Mammalian cancer cells were then incubated for 24 hours.
Precisely, CHO-S cells were cultured in 2 mL of DMEM (Dulbecco's Modified Eagle Medium) (10% FBS, 6% Glutamax) in a 24-well plate at a density of 200×10^3 cells/per well and subsequently incubated at 37° C. in a controlled atmosphere (5% CO2) under shaking. The following day, cells were counted by means of the Countess II instrument (Thermofisher Scientific) (an automated cell counter). They were then treated with Purymycin (positive control), Peny, (IIB) compounds, and in the absence of any product (negative control), at the concentrations shown in FIG. 37.
Cell counts were performed after 24 hours to determine the number of viable cells.

For `CC(=O)OC[C@H]1O[C@@H](OCc2cn(CCCNC(=O)[C@@H]3N4C(=O)N[C@H](C(=O)O)[C@H]4SC3(C)C)nn2)[C@H](OC(C)=O)[C@@H](OC(C)=O)[C@@H]1OC(C)=O` [Compound (IIB), (3S, 7R, 7aR)-2,2-dimethyl-5-oxo-3-((3-(4-((((2R, 3R, 4S, 5R, 6R)-3,4,5-triacetoxy-6-(acetoxymethyl)tetrahydro-2H-pyran-2-yl)oxy)methyl)-1H-1,2,3-triazol-1-yl)propyl)carbamoyl)hexahydroimidazo[5,1-b]thiazole-7-carboxylic acid], under “50 μM, read-out: reduction of viable cells”, the cytotoxicity at 50 µM is around 50%.

As for `CC(=O)OC[C@@H]1OC(n2cc(COC(=O)[C@@H]3N4C(=O)[C@@H](NC(=O)OC(C)(C)C)[C@H]4SC3(C)C)nn2)[C@@H](OC(C)=O)[C@H](OC(C)=O)[C@H]1OC(C)=O` (some centres unmarked) [Penγ], where the note is “tested at concentrations up to 400 μM”, the anticancer effect result is listed as “not associated”.

Values taken from patent US12637477B2, “Synthesis process of amide derivatives of hydroxypenicillanic acid” (priority 2020, dated 2026).
